Experimental data from the supplement of paper PMC10307832.

Experiments:
Assay in all cases: relative viability (nuclei count vs DMSO), 5 days (fraction); higher = more cells survive
Tosedostat + Crizotinib = compound: CC(C)C[C@@H](C(=O)N[C@H](C(=O)OC1CCCC1)c1ccccc1)[C@H](O)C(=O)NO [Tosedostat] + C[C@@H](Oc1cc(-c2cnn(C3CCNCC3)c2)cnc1N)c1c(Cl)ccc(F)c1Cl [Crizotinib] (partner 1 µM)
In short: (§1)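 After 5 days of treatment, lung cancer cells in 1536-well plates were fixed and stained in a single step (final 0.05% Triton X-100, 1% formaldehyde, 1 ug/ml Hoechst) and their nuclei counted on 4× images. Treatment had been applied by pin tool the day after seeding as one drug alone or as a fixed anchor-drug dose with five library-drug doses (not always all listed) in √10 steps. Relative viability is the nuclei count of treated wells divided by that of vehicle wells, and values are medians of duplicate plates.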

[1] = compound: CC1=NN=C(O1)C2=NN=C(C=C2)N3CCC(CC3)OC4=C(C=CC(=C4)F)Cl + CS(=O)(=O)N1CCN(Cc2cc3nc(-c4cccc5[nH]ncc45)nc(N4CCOCC4)c3s2)CC1 [Pictilisib] (partner 1 µM)
In short: as §1

Tosedostat + Linsitinib = compound: CC(C)C[C@@H](C(=O)N[C@H](C(=O)OC1CCCC1)c1ccccc1)[C@H](O)C(=O)NO [Tosedostat] + C[C@]1(O)C[C@@H](c2nc(-c3ccc4ccc(-c5ccccc5)nc4c3)c3c(N)nccn32)C1 [Linsitinib] (partner 1 µM)
In short: as §1

Tosedostat + Foretinib = compound: CC(C)C[C@@H](C(=O)N[C@H](C(=O)OC1CCCC1)c1ccccc1)[C@H](O)C(=O)NO [Tosedostat] + COc1cc2c(Oc3ccc(NC(=O)C4(C(=O)Nc5ccc(F)cc5)CC4)cc3F)ccnc2cc1OCCCN1CCOCC1 [Foretinib] (partner 0.25 µM)
In short: as §1

Row | Cell Line | relative viability (Tosedostat + Crizotinib; first compound 0.02 µM) | relative viability (Tosedostat + Crizotinib; first compound 0.06325 µM) | relative viability (Tosedostat + Crizotinib; first compound 0.2 µM) | relative viability (Tosedostat + Crizotinib; first compound 0.6325 µM) | relative viability (Tosedostat + Crizotinib; first compound 2 µM) | relative viability ([1]; first compound 0.253 µM) | relative viability ([1]; first compound 0.8 µM) | relative viability ([1]; first compound 2.53 µM) | relative viability ([1]; first compound 8 µM) | relative viability (Tosedostat + Linsitinib; first compound 0.02 µM) | relative viability (Tosedostat + Linsitinib; first compound 0.06325 µM) | relative viability (Tosedostat + Linsitinib; first compound 0.2 µM) | relative viability (Tosedostat + Linsitinib; first compound 0.6325 µM) | relative viability (Tosedostat + Linsitinib; first compound 2 µM) | relative viability (Tosedostat + Foretinib; first compound 0.02 µM) | relative viability (Tosedostat + Foretinib; first compound 0.06325 µM) | relative viability (Tosedostat + Foretinib; first compound 0.2 µM) | relative viability (Tosedostat + Foretinib; first compound 0.6325 µM) | relative viability (Tosedostat + Foretinib; first compound 2 µM)
1 | BEN | 0.894 | 0.875 | 0.818 | 1.02 | 0.956 | 0.571 | 0.62 | 0.68 | 0.584 | 0.986 | 0.921 | 0.989 | 1.14 | 1.06 | 0.713 | 0.825 | 0.799 | 0.878 | 0.846
2 | EMC-BAC-2 | 0.847 | 0.724 | 0.742 | 0.703 | 0.536 | 0.534 | 0.531 | 0.572 | 0.454 | 0.822 | 0.792 | 0.794 | 0.837 | 0.82 | 0.954 | 1.02 | 0.999 | 1.1 | 0.838
3 | LXF-289 | 0.838 | 0.703 | 0.821 | 0.76 | 0.799 | 0.69 | 0.718 | 0.687 | 0.6 | 1.02 | 0.879 | 1.02 | 0.946 | 0.994 | 0.981 | 1 | 1.04 | 0.943 | 0.962
4 | ABC-1 | 1.15 | 0.868 | 1.02 | 0.83 | 0.631 | 0.389 | 0.532 | 0.547 | 0.464 | 0.95 | 0.868 | 0.854 | 0.773 | 0.626 | 1.23 | 0.971 | 1.02 | 1.18 | 1.11
